Laboratory results as given in the supplement of paper PMC13380429.

Key:
Calu-3 [1] = assay: drug sensitivity score (DSS) for viability; higher = more toxic; extreme values may be limits of the assay; conditions: 72 h
U2OS [2] = assay: as above; conditions: 72 h
Vero E6 [3] = assay: as above; conditions: 72 h
Caco-2 [4] = assay: as above; conditions: 72 h
HepG2 [5] = assay: as above; conditions: 72 h
[6] = test system: A549-ACE2 infected with SARS-CoV-2; assay: cell count relative to DMSO; higher = less toxic; conditions: 24 h
Calu-3 [7] = assay: cell viability relative to DMSO; higher = less toxic; conditions: 72 h
U2OS [8] = assay: as above; conditions: 72 h
Vero E6 [9] = assay: as above; conditions: 72 h
Caco-2 [10] = assay: as above; conditions: 72 h
HepG2 [11] = assay: as above; conditions: 72 h
[12] = test system: A549-ACE2 infected with SARS-CoV-2; assay: SARS-CoV-2 infection rate relative to DMSO; higher = more infection; conditions: 24 h
A549-ACE2 = assay: drug-induced phospholipidosis relative to tamoxifen; higher = more phospholipidosis
Calu-3 [13] = assay: relative viability EC50 (midpoint between 100% and the lowest measured viability); higher = less toxic; conditions: 72 h
U2OS [14] = assay: as above; conditions: 72 h
Vero E6 [15] = assay: as above; conditions: 72 h
Caco-2 [16] = assay: as above; conditions: 72 h
HepG2 [17] = assay: as above; conditions: 72 h
[18] = test system: A549-ACE2 infected with SARS-CoV-2; assay: morphology score (similarity to uninfected cells); higher = more like uninfected cells; conditions: 24 h

O=C1C=C2C=C[C@@H]3C[C@@]2(O1)[C@H]1CCCCN31 [securinine]
Conditions | drug sensitivity score | relative viability EC50 [µM]
Caco-2 [4] | 0 | –
Caco-2 [16] | – | > 10
Calu-3 [1] | 0 | –
Calu-3 [13] | – | > 10
HepG2 [5] | 0 | –
HepG2 [17] | – | > 10
U2OS [2] | 0 | –
U2OS [14] | – | > 10
Vero E6 [3] | 0 | –
Vero E6 [15] | – | > 10

Conditions | SARS-CoV-2 infection rate, [12] [%] | cell count, [6] [%] | cell viability, Caco-2 [10] [%] | cell viability, Calu-3 [7] [%] | cell viability, HepG2 [11] [%] | cell viability, U2OS [8] [%] | cell viability, Vero E6 [9] [%] | morphology score, [18]
1 nM | – | – | 76.4 | 96.5 | 94.9 | 103 | 93.1 | –
10 nM | – | – | 91.5 | 88.5 | 103 | 94.9 | 101 | –
100 nM | – | – | 104 | 101 | 104 | 103 | 92.5 | –
0.3 µM | 108 | 92 | – | – | – | – | – | -0.16
1000 nM | – | – | 90.1 | 92.1 | 108 | 95.1 | 97.5 | –
3 µM | 107 | 97 | – | – | – | – | – | -0.26
10 µM | 109 | 103 | – | – | – | – | – | -0.24
10000 nM | – | – | 99.5 | 98.5 | 99.8 | 94.9 | 101 | –
30 µM | 87 | 84 | – | – | – | – | – | -0.11

drug-induced phospholipidosis [%], A549-ACE2
Conditions | 0.3 µM | 0.833333 µM | 3.33333 µM | 6.66667 µM | 10 µM | 30 µM
24 h | 4.04 | -1.29 | -2.26 | -0.14 | 0.15 | 3.11
48 h | 4.43 | 0.73 | 0.81 | 3.64 | 1.66 | 8.62
72 h | 5.5 | -2.31 | 1.12 | 1.57 | 2.55 | 11.9

C=C1C(=O)[C@]23[C@H](O)[C@H]1CC[C@H]2[C@@]12CO[C@]3(O)[C@@H](O)[C@@H]1C(C)(C)CC[C@@H]2O [Oridonin (Isodonol)]
Conditions | drug sensitivity score | relative viability EC50 [µM]
Caco-2 [4] | 2.7 | –
HepG2 [5] | 3.7 | –
HepG2 [17] | – | 2.63
U2OS [2] | 5.7 | –
U2OS [14] | – | 2.66
Vero E6 [3] | 1.2 | –
Vero E6 [15] | – | > 10

Conditions | SARS-CoV-2 infection rate, [12] [%] | cell count, [6] [%] | cell viability, Caco-2 [10] [%] | cell viability, HepG2 [11] [%] | cell viability, U2OS [8] [%] | cell viability, Vero E6 [9] [%] | morphology score, [18]
1 nM | – | – | 97.7 | 97.4 | 102 | 99.9 | –
10 nM | – | – | 107 | 103 | 95.1 | 98.7 | –
0.1 µM | 100 | 94 | – | – | – | – | -0.14
100 nM | – | – | 103 | 91.8 | 98.3 | 97.9 | –
0.3 µM | 99 | 101 | – | – | – | – | -0.02
1 µM | 104 | 99 | – | – | – | – | -0.18
1000 nM | – | – | 93.3 | 96.2 | 94.4 | 95.4 | –
3 µM | 101 | 98 | – | – | – | – | -0.01
10000 nM | – | – | 65.4 | 42.8 | 11.8 | 79.7 | –

drug-induced phospholipidosis [%], A549-ACE2
Conditions | 0.3 µM | 0.833333 µM | 3.33333 µM | 6.66667 µM | 10 µM | 30 µM
24 h | 5.1 | -1.43 | 0.65 | 11 | 16.8 | 43.1
48 h | 5.34 | -3.46 | -0.285 | 6.67 | 13 | –
72 h | 4.41 | -5.79 | -4.81 | -1.61 | 4.49 | –

COC(=O)[C@@]12OC[C@]34[C@H]([C@@H](O)[C@@H]1O)[C@@]1(C)CC(=O)C(O)=C(C)[C@@H]1C[C@H]3OC(=O)[C@H](OC(=O)/C=C(\C)C(C)C)[C@@H]24 [bruceantin]
Conditions | drug sensitivity score | relative viability EC50 [µM]
Caco-2 [4] | 23.9 | –
Caco-2 [16] | – | 0.0261
Calu-3 [1] | 21.3 | –
Calu-3 [13] | – | 0.0659
HepG2 [5] | 31 | –
HepG2 [17] | – | 0.0238
U2OS [2] | 34.5 | –
U2OS [14] | – | 0.0133
Vero E6 [3] | 21.5 | –
Vero E6 [15] | – | 0.133

Conditions | SARS-CoV-2 infection rate, [12] [%] | cell count, [6] [%] | cell viability, Caco-2 [10] [%] | cell viability, Calu-3 [7] [%] | cell viability, HepG2 [11] [%] | cell viability, U2OS [8] [%] | cell viability, Vero E6 [9] [%] | morphology score, [18]
1 nM | – | – | 102 | 96.7 | 92.8 | 103 | 101 | –
10 nM | – | – | 78.4 | 102 | 76.2 | 58.3 | 104 | –
0.1 µM | 12 | 62 | – | – | – | – | – | 0.3
100 nM | – | – | 37.7 | 41.4 | 13.8 | 9 | 59.1 | –
0.3 µM | 16 | 62 | – | – | – | – | – | 0.26
1 µM | 20 | 54 | – | – | – | – | – | 0.24
1000 nM | – | – | 25.5 | 26.5 | 4.6 | 1.8 | 11.4 | –
3 µM | 12 | 38 | – | – | – | – | – | 0.33
10000 nM | – | – | 22.4 | 21 | 0.9 | 0.1 | 2.5 | –

O=P(O)(O)C(O)(Cc1cccnc1)P(=O)(O)O [risedronate]
Conditions | drug sensitivity score | relative viability EC50 [µM]
Caco-2 [4] | 0 | –
Caco-2 [16] | – | > 10
Calu-3 [1] | 0 | –
Calu-3 [13] | – | > 10
HepG2 [5] | 0 | –
HepG2 [17] | – | > 10
U2OS [2] | 0 | –
U2OS [14] | – | > 10
Vero E6 [3] | 0 | –
Vero E6 [15] | – | > 10

cell viability [%]
Conditions | Caco-2 [10] | Calu-3 [7] | HepG2 [11] | U2OS [8] | Vero E6 [9]
1 nM | 95.6 | 97.9 | 83.2 | 102 | 93.1
10 nM | 103 | 98.7 | 97.1 | 96.1 | 98.7
100 nM | 94.1 | 103 | 95.5 | 98 | 93
1000 nM | 97.8 | 99.2 | 93.2 | 96.2 | 94.8
10000 nM | 94.7 | 104 | 101 | 96 | 104

Cc1[nH]cnc1CN1CCc2c(c3ccccc3n2C)C1=O [alosetron]
Conditions | drug sensitivity score | relative viability EC50 [µM]
Caco-2 [4] | 0 | –
Caco-2 [16] | – | > 10
Calu-3 [1] | 0 | –
Calu-3 [13] | – | > 10
HepG2 [5] | 3.7 | –
HepG2 [17] | – | > 10
U2OS [2] | 0 | –
U2OS [14] | – | > 10
Vero E6 [3] | 0 | –
Vero E6 [15] | – | > 10

cell viability [%]
Conditions | Caco-2 [10] | Calu-3 [7] | HepG2 [11] | U2OS [8] | Vero E6 [9]
1 nM | 101 | 102 | 111 | 98.2 | 99.3
10 nM | 98.7 | 93.5 | 93.7 | 95.6 | 94.5
100 nM | 95.6 | 102 | 83.9 | 104 | 93.1
1000 nM | 104 | 91.7 | 89.1 | 96.9 | 96.5
10000 nM | 109 | 106 | 94.4 | 99.5 | 97
